Reference: US20090306625A1, “TREATMENT SYSTEMS AND METHODS FOR RENAL-RELATED DISEASES” (AngioDynamics, Inc., priority 2007, published 2009)
Where a name gives a salt, the structure may show the parent alone.

Tests used:
septic patients = conditions: IV infusion 0.09 mcg/kg/min, average of one week or more, ICU; cited from earlier work
[1] = system: patients with moderate to severe underlying renal dysfunction; test: Targeted renal therapy (intra-renal infusion) with fenoldopam mesylate in patients receiving a nephrotoxic radio-contrast agent; type: in vivo, human; conditions: TRT (intra-renal) delivery
Source text: TRT can be applied to patients with various agents in many clinical settings to mitigate acute kidney injury. For example, TRT can be applied with fenoldopam mesylate, a dopamine DI-like agonist vasodilator (CORLOPAM® brand of Fenoldopam Mesylate Injection). […] The increase in GFR can be seen in the setting of an insult to the kidneys in the form of a nephrotoxic radio-contrast agent.

## Oc1ccc(C2CNCCc3c2cc(O)c(O)c3Cl)cc1 (stereo not drawn) [fenoldopam mesylate]
Septic patients
  outcome in preventing kidney failure: improved outcomes in preventing kidney failure
[1]
  effect on blood pressure: no significant effect
[1]; nephrotoxic radio-contrast insult
  increase in glomerular filtration rate (GFR) above baseline: approximately 25%
